The values below come from ChEMBL document CHEMBL3991601, “The target landscape of clinical kinase drugs” (Science, 2017).

Calls of active or inactive are those of the source. Rule as the data show it, for most assays here: actives have a measured Kd and inactives only a lower limit.

Assay [1] concerns the target T1, Peroxisomal acyl-coenzyme A oxidase 3 (Homo sapiens, UniProt O15254).
T1 sequence (O15254 whole entry): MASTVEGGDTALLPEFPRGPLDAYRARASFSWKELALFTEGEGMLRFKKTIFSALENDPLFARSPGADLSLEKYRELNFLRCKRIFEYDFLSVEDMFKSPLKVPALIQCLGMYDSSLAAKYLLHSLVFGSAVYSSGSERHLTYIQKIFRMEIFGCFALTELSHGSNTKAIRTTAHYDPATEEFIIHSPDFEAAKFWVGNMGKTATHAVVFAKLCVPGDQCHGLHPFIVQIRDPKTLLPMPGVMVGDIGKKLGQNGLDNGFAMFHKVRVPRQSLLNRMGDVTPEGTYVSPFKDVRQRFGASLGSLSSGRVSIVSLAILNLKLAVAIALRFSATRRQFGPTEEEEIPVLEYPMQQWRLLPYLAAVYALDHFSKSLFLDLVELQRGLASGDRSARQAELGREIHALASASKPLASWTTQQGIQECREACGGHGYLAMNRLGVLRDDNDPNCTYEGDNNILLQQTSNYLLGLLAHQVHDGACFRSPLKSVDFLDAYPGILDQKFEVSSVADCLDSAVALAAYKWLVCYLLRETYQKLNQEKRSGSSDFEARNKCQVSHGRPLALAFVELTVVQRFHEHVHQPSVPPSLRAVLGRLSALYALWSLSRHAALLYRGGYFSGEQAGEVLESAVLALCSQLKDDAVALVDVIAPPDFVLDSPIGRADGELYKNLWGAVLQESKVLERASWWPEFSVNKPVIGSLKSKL

The target of assay [2] is T2, Phosphatidylinositol 5-phosphate 4-kinase type-2 alpha (Homo sapiens, UniProt P48426).
T2 sequence (P48426 whole entry): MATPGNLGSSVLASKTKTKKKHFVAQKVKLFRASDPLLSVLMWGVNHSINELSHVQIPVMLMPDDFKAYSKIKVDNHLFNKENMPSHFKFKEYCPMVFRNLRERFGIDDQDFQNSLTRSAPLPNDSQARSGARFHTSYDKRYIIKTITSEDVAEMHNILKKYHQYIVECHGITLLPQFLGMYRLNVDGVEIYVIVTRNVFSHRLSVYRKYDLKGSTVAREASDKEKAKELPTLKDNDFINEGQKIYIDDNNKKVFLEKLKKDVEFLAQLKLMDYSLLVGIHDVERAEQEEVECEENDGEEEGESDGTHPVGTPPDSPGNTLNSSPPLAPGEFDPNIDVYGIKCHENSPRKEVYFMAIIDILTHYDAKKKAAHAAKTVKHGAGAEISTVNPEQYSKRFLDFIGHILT

The target of assay [3] is Mitogen-activated protein kinase 8 (Homo sapiens, UniProt P45983).
Mitogen-activated protein kinase 8, sequence (P45983 whole entry): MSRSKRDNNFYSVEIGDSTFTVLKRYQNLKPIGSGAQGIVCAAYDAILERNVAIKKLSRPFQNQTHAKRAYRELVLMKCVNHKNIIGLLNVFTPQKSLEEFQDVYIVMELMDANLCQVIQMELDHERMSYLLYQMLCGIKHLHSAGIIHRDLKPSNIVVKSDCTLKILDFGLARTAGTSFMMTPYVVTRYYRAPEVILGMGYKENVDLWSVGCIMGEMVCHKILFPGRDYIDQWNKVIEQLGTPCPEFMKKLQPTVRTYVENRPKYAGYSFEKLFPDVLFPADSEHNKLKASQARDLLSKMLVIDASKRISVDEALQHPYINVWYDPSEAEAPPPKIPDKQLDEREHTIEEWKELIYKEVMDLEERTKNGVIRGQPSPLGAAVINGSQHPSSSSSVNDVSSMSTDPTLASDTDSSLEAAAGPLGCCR
The target in assay [4] is Mitogen-activated protein kinase 9 (Homo sapiens, UniProt P45984).
Mitogen-activated protein kinase 9, sequence (P45984 whole entry): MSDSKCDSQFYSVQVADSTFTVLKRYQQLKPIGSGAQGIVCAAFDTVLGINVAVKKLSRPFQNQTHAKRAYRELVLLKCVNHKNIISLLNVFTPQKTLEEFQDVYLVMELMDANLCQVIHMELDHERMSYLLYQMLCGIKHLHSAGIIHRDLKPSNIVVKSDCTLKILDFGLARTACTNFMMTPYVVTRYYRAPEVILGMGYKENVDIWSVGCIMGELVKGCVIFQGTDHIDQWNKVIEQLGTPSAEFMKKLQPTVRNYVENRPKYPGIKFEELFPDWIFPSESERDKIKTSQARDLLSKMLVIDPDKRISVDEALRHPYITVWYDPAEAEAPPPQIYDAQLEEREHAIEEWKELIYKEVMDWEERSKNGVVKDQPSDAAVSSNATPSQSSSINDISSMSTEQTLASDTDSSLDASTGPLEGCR
The target in assay [5] is 5'-AMP-activated protein kinase catalytic subunit alpha-1 (Homo sapiens, UniProt Q13131).
5'-AMP-activated protein kinase catalytic subunit alpha-1, sequence (Q13131 whole entry): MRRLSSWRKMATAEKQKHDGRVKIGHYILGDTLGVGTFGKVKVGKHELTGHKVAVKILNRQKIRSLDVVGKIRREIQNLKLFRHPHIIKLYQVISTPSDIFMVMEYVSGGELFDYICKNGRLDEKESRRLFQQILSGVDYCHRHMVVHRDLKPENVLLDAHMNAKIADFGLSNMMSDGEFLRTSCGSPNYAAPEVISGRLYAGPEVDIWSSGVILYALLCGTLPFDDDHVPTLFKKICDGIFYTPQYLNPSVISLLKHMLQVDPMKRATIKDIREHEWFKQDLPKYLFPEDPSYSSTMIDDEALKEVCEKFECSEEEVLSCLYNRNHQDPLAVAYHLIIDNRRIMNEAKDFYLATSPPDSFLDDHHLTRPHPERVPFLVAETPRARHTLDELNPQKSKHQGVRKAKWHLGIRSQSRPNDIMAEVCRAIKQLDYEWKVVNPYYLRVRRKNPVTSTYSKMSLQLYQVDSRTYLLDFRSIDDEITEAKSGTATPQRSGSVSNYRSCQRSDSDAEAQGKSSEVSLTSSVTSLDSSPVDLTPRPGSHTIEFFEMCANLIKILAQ
For the next assay, the target named is T3, Ephrin type-B receptor 3 (Homo sapiens, UniProt P54753).
T3 sequence (P54753 whole entry): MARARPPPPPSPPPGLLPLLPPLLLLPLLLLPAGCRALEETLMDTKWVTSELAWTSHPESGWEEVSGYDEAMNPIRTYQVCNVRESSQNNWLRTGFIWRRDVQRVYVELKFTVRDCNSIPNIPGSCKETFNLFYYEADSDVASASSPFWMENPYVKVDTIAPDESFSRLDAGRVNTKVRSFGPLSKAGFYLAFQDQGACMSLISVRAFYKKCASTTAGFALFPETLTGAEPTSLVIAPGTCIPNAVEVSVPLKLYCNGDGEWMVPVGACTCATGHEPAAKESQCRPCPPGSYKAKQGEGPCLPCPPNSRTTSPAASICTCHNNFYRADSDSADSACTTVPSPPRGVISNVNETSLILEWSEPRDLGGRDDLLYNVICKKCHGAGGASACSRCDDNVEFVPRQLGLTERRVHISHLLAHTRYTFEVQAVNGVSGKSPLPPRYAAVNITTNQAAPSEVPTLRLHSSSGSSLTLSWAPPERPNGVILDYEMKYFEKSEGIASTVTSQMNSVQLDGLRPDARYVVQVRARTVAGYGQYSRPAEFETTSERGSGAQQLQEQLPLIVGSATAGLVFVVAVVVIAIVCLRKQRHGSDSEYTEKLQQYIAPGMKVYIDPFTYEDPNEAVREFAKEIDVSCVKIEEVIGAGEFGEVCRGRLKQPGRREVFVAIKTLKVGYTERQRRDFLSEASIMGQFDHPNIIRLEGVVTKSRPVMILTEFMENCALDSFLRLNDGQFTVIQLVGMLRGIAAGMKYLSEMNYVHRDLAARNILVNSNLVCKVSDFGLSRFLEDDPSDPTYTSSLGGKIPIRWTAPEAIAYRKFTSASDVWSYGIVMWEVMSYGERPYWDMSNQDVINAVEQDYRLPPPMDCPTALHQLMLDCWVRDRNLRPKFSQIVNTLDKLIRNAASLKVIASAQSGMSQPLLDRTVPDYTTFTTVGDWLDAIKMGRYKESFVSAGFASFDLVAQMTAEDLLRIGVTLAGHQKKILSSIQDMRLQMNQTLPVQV

Assay [6] has as its target T4, Adenine phosphoribosyltransferase (Homo sapiens, UniProt P07741).
T4 sequence (P07741 whole entry): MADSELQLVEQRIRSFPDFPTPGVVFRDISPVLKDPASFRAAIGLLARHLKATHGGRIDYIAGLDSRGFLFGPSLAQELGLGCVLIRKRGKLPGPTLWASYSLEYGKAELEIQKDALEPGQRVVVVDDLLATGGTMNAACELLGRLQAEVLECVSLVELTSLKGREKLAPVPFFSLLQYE

Assay [7] deals with Dual specificity mitogen-activated protein kinase kinase 2 (Homo sapiens, UniProt P36507).
Dual specificity mitogen-activated protein kinase kinase 2, sequence (P36507 whole entry): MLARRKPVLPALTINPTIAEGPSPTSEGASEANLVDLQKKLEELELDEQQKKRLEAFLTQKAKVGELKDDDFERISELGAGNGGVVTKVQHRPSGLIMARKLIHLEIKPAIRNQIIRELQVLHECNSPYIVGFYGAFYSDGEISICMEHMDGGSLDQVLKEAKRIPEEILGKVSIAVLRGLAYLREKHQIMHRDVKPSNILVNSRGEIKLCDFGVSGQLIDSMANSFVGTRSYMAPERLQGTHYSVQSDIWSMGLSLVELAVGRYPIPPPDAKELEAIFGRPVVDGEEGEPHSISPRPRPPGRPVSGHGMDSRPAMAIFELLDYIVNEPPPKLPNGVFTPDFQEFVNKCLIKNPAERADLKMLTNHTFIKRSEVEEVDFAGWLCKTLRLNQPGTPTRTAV
For assay [8], the target named is Calcium/calmodulin-dependent protein kinase type II subunit delta (Homo sapiens, UniProt Q13557).
Calcium/calmodulin-dependent protein kinase type II subunit delta, sequence (Q13557 whole entry): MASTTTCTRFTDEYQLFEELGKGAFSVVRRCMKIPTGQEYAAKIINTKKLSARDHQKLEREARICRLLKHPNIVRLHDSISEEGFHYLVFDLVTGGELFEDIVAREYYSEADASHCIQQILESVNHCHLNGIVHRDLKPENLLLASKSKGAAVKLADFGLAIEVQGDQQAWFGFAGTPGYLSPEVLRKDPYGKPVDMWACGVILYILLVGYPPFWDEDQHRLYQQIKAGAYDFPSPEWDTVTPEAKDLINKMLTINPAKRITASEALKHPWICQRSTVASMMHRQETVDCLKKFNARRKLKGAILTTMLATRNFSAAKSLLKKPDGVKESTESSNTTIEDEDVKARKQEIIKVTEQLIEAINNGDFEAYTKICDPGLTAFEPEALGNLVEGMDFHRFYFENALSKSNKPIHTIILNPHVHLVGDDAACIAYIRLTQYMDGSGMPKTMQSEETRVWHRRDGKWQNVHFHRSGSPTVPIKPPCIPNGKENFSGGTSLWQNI
Another assay deals with GTP-binding protein 4 (Homo sapiens, UniProt Q9BZE4).
Assay [9] deals with Serine/threonine-protein kinase 16 (Homo sapiens, UniProt O75716).
Serine/threonine-protein kinase 16, sequence (O75716 whole entry): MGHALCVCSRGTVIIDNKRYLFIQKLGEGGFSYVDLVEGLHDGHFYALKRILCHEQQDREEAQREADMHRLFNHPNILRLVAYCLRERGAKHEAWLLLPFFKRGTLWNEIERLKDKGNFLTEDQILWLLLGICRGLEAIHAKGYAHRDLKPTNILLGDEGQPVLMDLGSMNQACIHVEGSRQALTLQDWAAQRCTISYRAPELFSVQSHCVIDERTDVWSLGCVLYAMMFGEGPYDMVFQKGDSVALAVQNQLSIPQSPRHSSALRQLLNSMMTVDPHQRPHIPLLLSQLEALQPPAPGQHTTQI
Also: in the data inactive means no Kd found up to 30 µM.

As for `CC[C@@](C)(Nc1ccnc(-c2c[nH]c3ncccc23)n1)C(=O)NCC(F)(F)F` [DECERNOTINIB], the Kd (in [1]; in [2]; in assay [3]; in assay [4]; in assay [5]; at Ephrin type-B receptor 3) was > 30 µM (inactive) in each case. The Kd in assay [6] was > 30 µM (inactive); in [7] it was > 30 µM (inactive); in assay [8], 20.3 µM (active); on GTP-binding protein 4, > 30 µM (inactive); in [9], > 30 µM (inactive).
As to `O=S(=O)(c1cccc2c(O)nccc12)N1CCCNCC1` [HYDROXYFASUDIL], the Kd (in assay [1]; in assay [2]; in assay [3]; in assay [4]; in [5]; on Ephrin type-B receptor 3) was > 30 µM (inactive) in each case. In addition, the Kd (in assay [6]; in assay [7]; in assay [8]; on GTP-binding protein 4; in [9]) was > 30 µM (inactive) each time.
As for `C[C@@H]1COC(Nc2ccc3ncnc(Nc4ccc(OCc5nccs5)c(Cl)c4)c3c2)=N1` [VARLITINIB], the Kd (in assay [1]; in assay [2]; in assay [3]; in [4]; in assay [5]; at Ephrin type-B receptor 3) was > 30 µM (inactive) in each case. For the same compound, the Kd (in assay [6]; in assay [7]; in assay [8]; on GTP-binding protein 4; in assay [9]) was > 30 µM (inactive) in each case.
For `C=CC(=O)Nc1cc(Nc2nccc(-c3cn(C)c4ccccc34)n2)c(OC)cc1N(C)CCN(C)C` [OSIMERTINIB], the Kd (in assay [1]; in [2]; in assay [3]; in [4]; in assay [5]; at Ephrin type-B receptor 3) was > 30 µM (inactive) throughout. Also, the Kd (in [6]; in assay [7]; in assay [8]; on GTP-binding protein 4; in [9]) was > 30 µM (inactive) each time.
Turning to `COCCN1CCN(Cc2ccc(-c3n[nH]c4c3C(=O)c3c(NC(=O)NN5CCOCC5)cccc3-4)cc2)CC1` [RGB-286638], the Kd in assay [1] was > 30 µM (inactive); in assay [2], > 30 µM (inactive); in assay [3], 0.731 µM (active); in assay [4] it was 0.37 µM (active); in assay [5], > 30 µM (inactive); at Ephrin type-B receptor 3 it was > 30 µM (inactive). For the same compound, the Kd in assay [6] is > 30 µM (inactive); in assay [7], > 30 µM (inactive); in assay [8] it was > 30 µM (inactive); at GTP-binding protein 4, > 30 µM (inactive); in assay [9], 0.515 µM.
For `Cn1c(=O)c(F)c(Nc2ccc(I)cc2F)c2c(=O)n(C[C@@H](O)CO)cnc21` [TAK-733], the Kd (in assay [1]; in [2]; in [3]; in [4]; in assay [5]; at Ephrin type-B receptor 3) was > 30 µM (inactive) in each case. Moreover, the Kd in assay [6] was > 30 µM (inactive); in [7] it was 0.02 µM (active); in assay [8], > 30 µM (inactive); at GTP-binding protein 4 it was > 30 µM (inactive); in [9] it was > 30 µM (inactive).
For the compound `Cn1cc(-c2[nH]c3cc(NC(=O)[C@H](N)C4CCCCC4)cc4c3c2C=NNC4=O)cn1`, the Kd is > 30 µM (inactive) in [1]; > 30 µM (inactive) in assay [2]; > 30 µM (inactive) in [3]; > 30 µM (inactive) in [4]; 1.32 µM (active) in [5]; > 30 µM (inactive) at Ephrin type-B receptor 3. In addition, the Kd (in assay [6]; in assay [7]; in assay [8]; on GTP-binding protein 4; in assay [9]) was > 30 µM (inactive) in each case.
Consider `NC[C@@](O)(c1ccc(Cl)cc1)c1ccc(-c2cn[nH]c2)cc1` [AT-13148], for which the Kd (in assay [1]; in [2]; in [3]; in [4]; in assay [5]; at Ephrin type-B receptor 3) was > 30 µM (inactive) throughout. The Kd (in assay [6]; in [7]; in assay [8]; at GTP-binding protein 4; in assay [9]) was > 30 µM (inactive) each time.
With `COc1cc(F)c(F)c(Nc2ccc(I)cc2F)c1NS(=O)(=O)C1(C[C@H](O)CO)CC1` [REFAMETINIB], the Kd (in assay [1]; in [2]; in assay [3]; in assay [4]; in assay [5]; on Ephrin type-B receptor 3) was > 30 µM (inactive) each time. Moreover, the Kd was > 30 µM (inactive) in assay [6]; 0.176 µM (active) in [7]; > 30 µM (inactive) in [8]; > 30 µM (inactive) on GTP-binding protein 4; > 30 µM (inactive) in assay [9].
Regarding `CCc1cc2c(cc1N1CCC(N3CCOCC3)CC1)C(C)(C)c1[nH]c3cc(C#N)ccc3c1C2=O` [ALECTINIB], the Kd in [1] is 2.6 µM (active); in assay [2], > 30 µM (inactive); in assay [3], > 30 µM (inactive); in assay [4] it was > 30 µM (inactive); in [5], > 30 µM (inactive); at Ephrin type-B receptor 3 it was > 30 µM (inactive). Further, the Kd (in assay [6]; in assay [7]; in [8]; on GTP-binding protein 4; in [9]) was > 30 µM (inactive) throughout.

For orientation: Kd means the equilibrium constant for the complex coming apart.
